Reference: patent US5824657A, “Aminoacyl sulfamides for the treatment of hyperproliferative disorders” (priority 1997, dated 1998)
Read-outs that look alike come from different tables or passages of the source.

Experiments:
[1] = test system: aminoacyl-tRNA synthetases (aaRS) isolated from HeLa cells; experiment: IC50 determination, aaRS charging and trichloroacetic acid precipitation assay, aaRS partially purified from HeLa cell extracts; format: biochemical; conditions: preincubation 20 minutes at 25° C., reaction 5-20 minutes
Protocol: IC50 determinations for the aminoacyl-tRNA synthetases (aaRS) isolated from HeLa cells were carried out using a modification of the aaRS charging and trichloroacetic acid precipitation assay described previously (see examples: D. Kern et. al., Biochemie, 61, 1257-1272 (1979) and J. Gilbart et. al. Antimicrobial Agents and Chemotherapy, 37(1), 32-38 (1993)). […] For practical purposes, the minimal acceptable value is approximately 2000 cpm per 10 minute reaction. The final dilution of the HeLa extract in the assays for the aaRS enzymes varies from 50 to 1200-fold.
Test compounds were typically present as serial dilutions in concentrations ranging from 0.35 nM to 35 μM. Test compound solutions were prepared by dissolving test compounds in 100% dimethyl sulfoxide and diluting to the final concentration with 50 mM HEPES, pH 7.5. IC50 determinations were typically performed in duplicate with each experiment containing 4-8 concentrations of test compound and with duplicate controls containing no inhibitor.
The reaction was incubated at 25° C. for 5-20 minutes. At specified time points a 15 microliter aliquot was removed and added to a well of a Millipore filtration plate (Multiscreen-FB, MAFB NOB 10) containing 100 microliters of cold 5% (wt/vol) trichloroacetic acid. Trichloroacitic acid precipitable material was collected by filtration on a Millipore Multiscreen filtration station, washed twice with cold 5% trichloroacetic acid, twice with water, and dried. Plates were typically allowed to air dry for several hours or baked at 50° C. in a vacuum oven for 30 minutes. The radioactivity on the dried plates was quantitated by the addition of Packard Microscint-20 to the wells and counting with a Packard TopCount scintillation counter.
Inhibitor activity typically was reported as a percentage of the control aaRS activity. […] The IC50 (in nM, Hela Cells) values of representative compounds of the present invention are listed in column 5 of Table I.

[2] = test system: human epidermoid carcinoma cell line A-253 (ATCC HTB 41); experiment: MTT assay, human epidermoid carcinoma cell line; format: cell-based; conditions: read-out: IC50 Human Epidermoid Carcinoma Cells ATCC # HTB 41
Protocol: The MTT assay was used as a model to measure the inhibitory effects of the compounds of Formula I. The MTT assay is considered the most convenient modern assay for the determination of cell viability and cell proliferation. An MTT assay kit is commercially available (Chemicon International Inc., Temecula, Calif.). The MTT assay was performed according to manufacturer's instructions as outlined below.
A human epidermoid carcinoma cell line, designated as A-253 (ATCC HTB 41), was obtained in frozen vials from the American Type Culture Collection, Rockville, Md. Monolayer cultures were established from the vials by growth in RPMI 1640 medium supplemented with 10% fetal bovine serum (heat-inactivated), 2 mM L-glutamine, and pen-strep (100 units/ml; 100 μg/ml). The cultures were incubated at 37±1.5° C. in 5±1% CO2 in humidified air and were passaged weekly to avoid overgrowth. The laboratory cultures used for the present study were at passage seven after receipt of frozen stocks from ATCC.
Compounds of Formula I in powder form were stored at room temperature in plastic micro centrifuge tubes. Each tube was placed in a plastic bag containing desiccant. Each test compound was prepared as a 2 mg/ml solution in RPMI 1640 medium (non-supplemented) on the day of use, and the appropriate dilutions were prepared with the same vehicle.
Each compound was handled by sterile techniques in Class II, Type B biological safety cabinets.
The reference control compound was methotrexate at concentrations of 0.5 μg/ml to 50 μg/ml. A 1 mg/ml stock was prepared on the day of dosing and diluted to the appropriate concentrations using RPMI 1640 medium (non-supplemented).
A blank control was included in the MTT assay in order to determine the absorbance associated with the absence of any cells. This control was RPMI 1640 culture medium carried through the same procedures used to culture the cells in the microwell plates and to conduct the MTT assay color development. The microwell plate reader was zeroed against the blank control prior to recording the absorbance in the test wells.
Laboratory monolayer cultures of A-253 cells were trypsinized and seeded at a concentration of 24,000 cells in 0.05 ml of complete RPMI 1640 culture medium per well in 96-well plates. Eight wells in a column were seeded for each test condition. The blank control was prepared by adding 0.05 ml of culture medium (no cells) to 8 wells in the first column of each plate. A separate microwell plate was used for each compound of Formula I.
The test compound treatments were initiated immediately after seeding the cells by adding 0.05 ml of treatment medium to each microwell. Ten different test compound concentrations were prepared in culture medium (without serum), and each concentration was applied to a volume of eight wells on the appropriate plate. The final concentrations in the wells were 1000, 500, 250, 100, 50, 25, 10, 5, 2.5, and 1 μg/ml.
An untreated (zero-dose) condition was included as a column of 8 wells on each plate. The zero-dose and blank control wells received 0.05 ml of culture medium (without serum). The microwell plates were placed in an incubator at 37±1.5° C. in 5% CO2 in humidified air for an exposure period of 72±0.5 hours.
After the exposure period, 0.1 ml of MTT dye solution (0.5 mg/ml in serum free RPMI 1640 medium) was added to each micowell. The cultures were returned to the incubator for 2±0.1 hours. Then the medium was removed from each well and placed into a clean microwell plate for temporary storage. A volume of 0.1 ml of color development solution (Solution C, isopropanol with 0.04M HCl, Chemicon MTT Assay kit, Chemicon International Inc., Temecula, Calif.) was added to each new microwell. The contents were carefully mixed and allowed to sit at room temperature for approximately 1 hour. The medium that was saved from each microwell then was pipetted back into the well from which it originally came. […]

[3] = test system: normal human skin fibroblasts cell line ATCC CRL 1501; experiment: MTT assay, normal skin fibroblasts; format: cell-based; conditions: Skin fibroblast, similar manner to HTB 41 assay
Protocol: The MTT assay was used as a model to measure the inhibitory effects of the compounds of Formula I. The MTT assay is considered the most convenient modern assay for the determination of cell viability and cell proliferation. […] The MTT assay was performed according to manufacturer's instructions as outlined below.
The cultures were returned to the incubator for 2±0.1 hours. Then the medium was removed from each well and placed into a clean microwell plate for temporary storage. A volume of 0.1 ml of color development solution (Solution C, isopropanol with 0.04M HCl, Chemicon MTT Assay kit, Chemicon International Inc., Temecula, Calif.) was added to each new microwell. […] The absorbance at 540 nm wavelength was determined in a microwell plate reader within two hours of the final preparation of the plates.
The absorbance at 540 nm was recorded for each well by the microwell plate reader after the instrument was zeroed against the blank controls for each plate. The mean absorbance for each test condition was calculated and compared to the mean absorbance for the zero-dose wells in order to obtain percent values. […]

[4] = test system: isoleucyl-tRNA synthetase; conditions: cited from earlier work
[5] = test system: Gram positive bacterial pathogens such as Staphylococcus aureus; conditions: cited from earlier work
[6] = A253, MTT assay, exposure 72 hours, plot extended by eye for compounds active at lowest dose

SMILES	IC50 [1]	IC50 [2, 6]	further results
Nc1ncnc2c1ncn2[C@@H]1O[C@H](CNS(=O)(=O)NC(=O)[C@@H](N)Cc2ccc(O)cc2)[C@@H](O)[C@H]1O [V]	17 nM	790 nM	
CN(Cc1cnc2nc(N)nc(N)c2n1)c1ccc(C(=O)N[C@@H](CCC(=O)O)C(=O)O)cc1 [Methotrexate, reference compound]			IC50 ([2]; A253, 72 h): 40 nM
Nc1ncnc2c1ncn2[C@@H]1O[C@H](CNS(=O)(=O)NC(=O)[C@@H](N)Cc2c[nH]cn2)[C@@H](O)[C@H]1O [XIII]	2 nM	2690 nM	
CC(=CC(=O)OCCCCCCCCC(=O)O)CC1OCC(CC2OC2C(C)C(C)O)C(O)C1O (stereo not drawn) [Pseudomonic acid A]			inhibition of isoleucyl adenylate formation [4]: inhibits isoleucyl adenylate formation; inhibition of protein synthesis and growth [5]: inhibition of protein synthesis, followed by growth inhibition
Nc1ncnc2c1ncn2[C@@H]1O[C@H](CNS(=O)(=O)NC(=O)[C@@H](N)CC(=O)O)[C@@H](O)[C@H]1O [VIII]	174 nM	5000 nM	
Nc1ncnc2c1ncn2[C@@H]1O[C@H](CNS(=O)(=O)NC(=O)[C@@H](N)Cc2c[nH]c3ccccc23)[C@@H](O)[C@H]1O [Compound X, 5'-deoxy-adenosine 5'-N-(N-L-tryptophanyl)sulfamide]	300 nM	530 nM	IC50 [3]: 80 nM
NC(=O)CC[C@H](N)C(=O)NS(=O)(=O)NC[C@H]1O[C@@H](n2cnc3c(N)ncnc32)[C@H](O)[C@@H]1O [XVI]	400 nM	3590 nM	
Nc1ncnc2c1ncn2[C@@H]1O[C@H](CNS(=O)(=O)NC(=O)[C@@H]2CCCN2)[C@@H](O)[C@H]1O [XV]	1 nM	900 nM	
NCCCC[C@H](N)C(=O)NS(=O)(=O)NC[C@H]1O[C@@H](n2cnc3c(N)ncnc32)[C@H](O)[C@@H]1O [Compound XI]	8 nM	2530 nM	
Nc1ncnc2c1ncn2[C@@H]1O[C@H](CNS(=O)(=O)NC(=O)[C@@H](N)CCC(=O)O)[C@@H](O)[C@H]1O [XII]		10500 nM	
CC1=C(/C=C/C(C)=C/C=C/C(C)=C/C(=O)O)C(C)(C)CCC1 [Retinoic acid, reference compound]			IC50 ([2]; A253, 72 h): 266000 nM
N=C(N)NCCC[C@H](N)C(=O)NS(=O)(=O)NC[C@H]1O[C@@H](n2cnc3c(N)ncnc32)[C@H](O)[C@@H]1O [XVII]	14 nM	3990 nM	

The next lines start with results.

IC50 [1]	IC50 [2, 6]	SMILES	further results
22 nM	1440 nM	C[C@H](N)C(=O)NS(=O)(=O)NC[C@H]1O[C@@H](n2cnc3c(N)ncnc32)[C@H](O)[C@@H]1O [VII]	
3 nM	1050 nM	CSCC[C@H](N)C(=O)NS(=O)(=O)NC[C@H]1O[C@@H](n2cnc3c(N)ncnc32)[C@H](O)[C@@H]1O [IV]	
0.9 nM	3050 nM	CC[C@H](C)[C@H](N)C(=O)NS(=O)(=O)NC[C@H]1O[C@@H](n2cnc3c(N)ncnc32)[C@H](O)[C@@H]1O [I]	
0.5 nM	1370 nM	CC(C)C[C@H](N)C(=O)NS(=O)(=O)NC[C@H]1O[C@@H](n2cnc3c(N)ncnc32)[C@H](O)[C@@H]1O [III]	IC50 [3]: 13000 nM
140 nM	9250 nM	Nc1ncnc2c1ncn2[C@@H]1O[C@H](CNS(=O)(=O)NC(=O)[C@@H](N)CO)[C@@H](O)[C@H]1O [VI, 5'-deoxy-adenosine 5'-N-(N-L-seryl)sulfamide]	
50 nM	1490 nM	NCC(=O)NS(=O)(=O)NC[C@H]1O[C@@H](n2cnc3c(N)ncnc32)[C@H](O)[C@@H]1O [IX]	
27 nM	4950 nM	CC(C)[C@H](N)C(=O)NS(=O)(=O)NC[C@H]1O[C@@H](n2cnc3c(N)ncnc32)[C@H](O)[C@@H]1O [II]	
40 nM	9630 nM	C[C@@H](O)[C@H](N)C(=O)NS(=O)(=O)NC[C@H]1O[C@@H](n2cnc3c(N)ncnc32)[C@H](O)[C@@H]1O [XVIII]	
